Test results as given in US20040224939A1, “Antibacterial agents” (priority 2003, published 2004).
Values after ≈ are worked out from the molar mass of the structure shown.

Assays:
S. aureus UC-76 = assay: Antibacterial assay (Test A), standard microtitration MIC, Gram positive; type: cell-based; settings: Gram Positive Bacteria, strain UC-76; for MIC: Staphylococcus aureus, UC76, read-out: Minimum Inhibitory Concentrations, S. aureus UC-76
Procedure: (§1) Test A—Antibacterial Assays
(§2) The compounds of the present invention were tested against an assortment of Gram-negative and Gram-positive organisms using standard microtitration techniques (Cohen et. al., Antimicrob., 1985;28:766; Heifetz, et. al., Antimicrob., 1974;6:124).

S pyogenes C203 = assay: as above; type: cell-based; settings: Gram Positive Bacteria, strain C203; for MIC: read-out: Minimum Inhibitory Concentrations, S pyogenes C203
Procedure: as §1, §2

E. faecalis MGH-2 = assay: as above; type: cell-based; settings: Gram Positive Bacteria, strain MGH-2; for MIC: Enterococcus faecalis, MGH2, read-out: Minimum Inhibitory Concentrations, E. faecalis MGH-2
Procedure: as §1, §2

E. coli Tol C = assay: Antibacterial assay (Test A), standard microtitration MIC, Gram negative; type: cell-based; settings: for MIC: Escherichia coli, read-out: Minimum Inhibitory Concentrations, E. coli Tol C
Procedure: as §1, §2

M. catarrhalis BC3534 = assay: as above; type: cell-based; settings: Gram Negative Bacteria, strain BC3534; for MIC: Moraxella catarrhalis, read-out: Minimum Inhibitory Concentrations, M. catarrhalis BC3534
Procedure: as §1, §2

H. influenzae H13542 = assay: as above; type: cell-based; settings: Gram Negative Bacteria, strain H13542; for MIC: Haemophilus influenzae, read-out: Minimum Inhibitory Concentrations, H. influenzae H13542
Procedure: as §1, §2

[1] = tested on: E. coli transcription and translation (TnT), E. coli S30 fraction; assay: E. coli transcription and translation (TnT) assay, cell free, luciferase luminescence;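 further: printed under a heading of minimum inhibitory concentration in µg/mL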; type: biochemical; settings: cell free E. coli S30, firefly luciferase plasmid pBESTluc, 20 minutes at room temperature

Molecule: CC(=O)NC[C@H]1CN(c2ccc3c(c2)C=CCCC3)C(=O)O1
- MIC (S. aureus UC-76): 4 µg/mL (≈ 13.3 µM)
- MIC (S pyogenes C203): 2 µg/mL (≈ 6.66 µM)
- MIC (E. faecalis MGH-2): 4 µg/mL (≈ 13.3 µM)
- MIC (E. coli Tol C): > 64 µg/mL
- MIC (M. catarrhalis BC3534): 32 µg/mL (≈ 107 µM)
- MIC (H. influenzae H13542): > 64 µg/mL

Molecule: CC(=O)NC[C@H]1CN(c2ccc3c(c2)CCN(C(=O)Cc2cccs2)CC3)C(=O)O1
- Inhibitory concentration in E. coli cell-free transcription/translation assay [1]: 2.3 µg/mL
- MIC (S. aureus UC-76): 0.25 µg/mL (≈ 0.585 µM)
- MIC (S pyogenes C203): 0.125 µg/mL (≈ 0.292 µM)
- MIC (E. faecalis MGH-2): 0.25 µg/mL (≈ 0.585 µM)
- MIC (E. coli Tol C): > 64 µg/mL
- MIC (M. catarrhalis BC3534): 16 µg/mL (≈ 37.4 µM)
- MIC (H. influenzae H13542): > 64 µg/mL

Molecule: CC(=O)NC[C@H]1CN(c2ccc3c(c2)CCCC(Cc2ccsc2)C3=O)C(=O)O1 (stereo partly shown)
- Inhibitory concentration in E. coli cell-free transcription/translation assay [1]: 0.84 µg/mL
- MIC (S. aureus UC-76): 0.25 µg/mL (≈ 0.606 µM)
- MIC (S pyogenes C203): 0.25 µg/mL (≈ 0.606 µM)
- MIC (E. faecalis MGH-2): 0.5 µg/mL (≈ 1.21 µM)
- MIC (E. coli Tol C): > 64 µg/mL
- MIC (M. catarrhalis BC3534): 1 µg/mL (≈ 2.42 µM)
- MIC (H. influenzae H13542): 2 µg/mL (≈ 4.85 µM)

Molecule: COC(=O)C1CCCc2cc(N3C[C@H](CNC(C)=O)OC3=O)ccc2C1=O (stereo partly shown)
- Inhibitory concentration in E. coli cell-free transcription/translation assay [1]: 4.7 µg/mL
- MIC (S. aureus UC-76): 4 µg/mL (≈ 10.7 µM)
- MIC (S pyogenes C203): 4 µg/mL (≈ 10.7 µM)
- MIC (E. faecalis MGH-2): 2 µg/mL (≈ 5.34 µM)
- MIC (E. coli Tol C): > 64 µg/mL
- MIC (M. catarrhalis BC3534): 16 µg/mL (≈ 42.7 µM)
- MIC (H. influenzae H13542): 32 µg/mL (≈ 85.5 µM)

Molecule: CC(=O)NCC1CN(c2ccc3c(c2)CCCCC3=O)C(=O)O1 (stereo not shown) [Example 2, N-[2-Oxo-3-(5-oxo-6,7,8,9-tetrahydro-5H-benzocyclohepten-2-yl)-oxazolidin-5-ylmethyl]-acetamide]
- Inhibitory concentration in E. coli cell-free transcription/translation assay [1]: 3.9 µg/mL
- MIC (S. aureus UC-76): > 64 µg/mL
- MIC (S pyogenes C203): > 64 µg/mL
- MIC (E. faecalis MGH-2): > 64 µg/mL
- MIC (E. coli Tol C): > 64 µg/mL
- MIC (M. catarrhalis BC3534): 4 µg/mL (≈ 12.6 µM)
- MIC (H. influenzae H13542): 8 µg/mL (≈ 25.3 µM)

Molecule: CC(=O)NCC1CN(c2ccc3c(c2)CCC(=O)CC3)C(=O)O1 (stereo not shown) [Example 4, N-[2-Oxo-3-(7-oxo-6,7,8,9-tetrahydro-5H-benzocyclohepten-2-yl)-oxazolidin-5-ylmethyl]-acetamide]
- Inhibitory concentration in E. coli cell-free transcription/translation assay [1]: 8.2 µg/mL
- MIC (S. aureus UC-76): 4 µg/mL (≈ 12.6 µM)
- MIC (S pyogenes C203): 4 µg/mL (≈ 12.6 µM)
- MIC (E. faecalis MGH-2): 8 µg/mL (≈ 25.3 µM)
- MIC (E. coli Tol C): > 64 µg/mL
- MIC (M. catarrhalis BC3534): 32 µg/mL (≈ 101 µM)
- MIC (H. influenzae H13542): 64 µg/mL (≈ 202 µM)

Molecule: CC(=O)NCC1CN(c2ccc3c(c2)CC(=O)CCC3)C(=O)O1 (stereo not shown) [Example 5, N-[2-Oxo-3-(8-oxo-6,7,8,9-tetrahydro-5H-benzocyclohepten-2-yl)-oxazolidin-5-ylmethyl]-acetamide]
- Inhibitory concentration in E. coli cell-free transcription/translation assay [1]: 2.3 µg/mL
- MIC (S. aureus UC-76): 8 µg/mL (≈ 25.3 µM)
- MIC (S pyogenes C203): 8 µg/mL (≈ 25.3 µM)
- MIC (E. faecalis MGH-2): 16 µg/mL (≈ 50.6 µM)
- MIC (E. coli Tol C): > 64 µg/mL
- MIC (M. catarrhalis BC3534): 64 µg/mL (≈ 202 µM)
- MIC (H. influenzae H13542): 64 µg/mL (≈ 202 µM)

Molecule: CC(=O)NCC1CN(c2ccc3c(c2)C=CCCC3)C(=O)O1 (stereo not shown) [Example 6, N-[3-(6,7-dihydro-5H-benzocyclohepten-2-yl)-2-oxo-oxazolidin-5-ylmethyl]acetamide]
- Inhibitory concentration in E. coli cell-free transcription/translation assay [1]: 15 µg/mL
- MIC (S. aureus UC-76): 4 µg/mL (≈ 13.3 µM)
- MIC (S pyogenes C203): 2 µg/mL (≈ 6.66 µM)
- MIC (E. faecalis MGH-2): 4 µg/mL (≈ 13.3 µM)
- MIC (E. coli Tol C): > 64 µg/mL
- MIC (M. catarrhalis BC3534): 32 µg/mL (≈ 107 µM)
- MIC (H. influenzae H13542): > 64 µg/mL

Molecule: CC(=O)NCC1CN(c2ccc3c(c2)CCCC(=O)C3)C(=O)O1 (stereo not shown) [Example 7, N-[2-Oxo-3-(6-oxo-6,7,8,9-tetrahydro-5H-benzocyclohepten-2-yl)-oxazolidin-5-ylmethyl]-acetamide]
- Inhibitory concentration in E. coli cell-free transcription/translation assay [1]: 12 µg/mL
- MIC (S. aureus UC-76): 4 µg/mL (≈ 12.6 µM)
- MIC (S pyogenes C203): 2 µg/mL (≈ 6.32 µM)
- MIC (E. faecalis MGH-2): 4 µg/mL (≈ 12.6 µM)
- MIC (E. coli Tol C): > 64 µg/mL
- MIC (M. catarrhalis BC3534): 32 µg/mL (≈ 101 µM)
- MIC (H. influenzae H13542): 32 µg/mL (≈ 101 µM)

Molecule: CC(=O)NCC1CN(c2ccc3c(c2)OCCCC3=O)C(=O)O1 (stereo not shown) [Example 12, N-[2-Oxo-3-(5-oxo-2,3,4,5-tetrahydro-benzo[b]oxepin-8-yl)-oxazolidin-5-ylmethyl]-acetamide]
- Inhibitory concentration in E. coli cell-free transcription/translation assay [1]: 1.1 µg/mL
- MIC (S. aureus UC-76): 8 µg/mL (≈ 25.1 µM)
- MIC (S pyogenes C203): 2 µg/mL (≈ 6.28 µM)
- MIC (E. faecalis MGH-2): 4 µg/mL (≈ 12.6 µM)
- MIC (E. coli Tol C): > 64 µg/mL
- MIC (M. catarrhalis BC3534): 16 µg/mL (≈ 50.3 µM)
- MIC (H. influenzae H13542): 32 µg/mL (≈ 101 µM)

Molecule: CC(=O)NCC1CN(c2ccc3c(c2)CCCCN3)C(=O)O1 (stereo not shown) [Example 14, N-[2-Oxo-3-(2,3,4,5-tetrahydro-1H-benzo[b]azepin-7-yl)-oxazolidin-5-ylmethyl]-acetamide]
- MIC (S. aureus UC-76): 32 µg/mL (≈ 105 µM)
- MIC (S pyogenes C203): 16 µg/mL (≈ 52.7 µM)
- MIC (E. faecalis MGH-2): 64 µg/mL (≈ 211 µM)
- MIC (E. coli Tol C): > 64 µg/mL
- MIC (M. catarrhalis BC3534): > 64 µg/mL
- MIC (H. influenzae H13542): 64 µg/mL (≈ 211 µM)

Molecule: CC(=O)NC[C@H]1CN(c2ccc3c(c2)CCCCC3)C(=O)O1 [drawing 69]
- MIC (S. aureus UC-76): 2 µg/mL (≈ 6.61 µM)
- MIC (S pyogenes C203): 2 µg/mL (≈ 6.61 µM)
- MIC (E. faecalis MGH-2): 4 µg/mL (≈ 13.2 µM)
- MIC (E. coli Tol C): > 64 µg/mL
- MIC (M. catarrhalis BC3534): 16 µg/mL (≈ 52.9 µM)
- MIC (H. influenzae H13542): > 64 µg/mL

Molecule: CC(=O)NC[C@H]1CN(c2ccc3c(c2)CCCCC3)C(=O)O1 [drawing 70]
- Inhibitory concentration in E. coli cell-free transcription/translation assay [1]: 6.6 µg/mL

Molecule: CC(=O)NC[C@H]1CN(c2ccc3c(c2)CCC/C(=C\c2ccc(F)cc2)C3=O)C(=O)O1 [drawing 72]
- Inhibitory concentration in E. coli cell-free transcription/translation assay [1]: 1.4 µg/mL
- MIC (E. coli Tol C): > 64 µg/mL
- MIC (M. catarrhalis BC3534): 1 µg/mL (≈ 2.37 µM)
- MIC (H. influenzae H13542): 2 µg/mL (≈ 4.73 µM)

Molecule: CC(=O)NC[C@H]1CN(c2ccc3c(c2)CCC/C(=C\c2ccncc2)C3=O)C(=O)O1 [drawing 72]
- MIC (S. aureus UC-76): 1 µg/mL (≈ 2.47 µM)
- MIC (S pyogenes C203): 1 µg/mL (≈ 2.47 µM)
- MIC (E. faecalis MGH-2): 1 µg/mL (≈ 2.47 µM)

Molecule: CC(=O)NC[C@H]1CN(c2ccc3c(c2)CCC/C(=C\c2ccc(F)cc2)C3=O)C(=O)O1 [drawing 73]
- MIC (S. aureus UC-76): 0.5 µg/mL (≈ 1.18 µM)
- MIC (S pyogenes C203): 0.5 µg/mL (≈ 1.18 µM)
- MIC (E. faecalis MGH-2): 0.5 µg/mL (≈ 1.18 µM)

Molecule: CC(=O)NC[C@H]1CN(c2ccc3c(c2)CCC/C(=C\c2ccncc2)C3=O)C(=O)O1 [drawing 73]
- Inhibitory concentration in E. coli cell-free transcription/translation assay [1]: 2.7 µg/mL
- MIC (E. coli Tol C): > 64 µg/mL
- MIC (M. catarrhalis BC3534): 8 µg/mL (≈ 19.7 µM)
- MIC (H. influenzae H13542): 16 µg/mL (≈ 39.5 µM)

Molecule: N-[2-Oxo-3-(2,3,4,5-tetrahydro-1H-benzo [c] azepin-7-yl)-oxazolidin-5-ylmethyl]-acetamide and N-[2-Oxo-3-(2,3,4,5-tetrahydro-1H-benzo[d]azepin-7-yl)-oxazolidin-5-ylmethyl]-acetamide [Example 15]
- Inhibitory concentration in E. coli cell-free transcription/translation assay [1]: 11 µg/mL
- Minimum Inhibitory Concentrations, S. aureus UC-76 (S. aureus UC-76): 64 µg/mL
- Minimum Inhibitory Concentrations, S pyogenes C203 (S pyogenes C203): 64 µg/mL
- Minimum Inhibitory Concentrations, E. faecalis MGH-2 (E. faecalis MGH-2): 64 µg/mL
- Minimum Inhibitory Concentrations, E. coli Tol C (E. coli Tol C; Gram Negative Bacteria, strain Tol C): >64 µg/mL
- Minimum Inhibitory Concentrations, M. catarrhalis BC3534 (M. catarrhalis BC3534): >64 µg/mL
- Minimum Inhibitory Concentrations, H. influenzae H13542 (H. influenzae H13542): >64 µg/mL
